The values that follow come from ChEMBL document CHEMBL4414591, “Isolation and Total Synthesis of Mabuniamide, a Lipopeptide from an Okeania sp. Marine Cyanobacterium” (J Nat Prod, 2019).

As usually defined, the IC50 is the concentration that gives 50% inhibition. Higher therefore signals a need for much substance.

The subject of one series is Plasmodium falciparum. In words: Antiprotozoal activity against erythrocytic stage of Plasmodium falciparum 3D7 incubated for 72 hrs by lactate dehydrogenase assay. It is filed as functional, organism-based. As to conditions: 3D7, 72 h.
The subject of series [1] is L6. Kind of series: Cytotoxicity against rat L6 cells assessed as decrease in cell viability at 10 to 40 uM incubated for 22 hrs by MTT assay. It is filed as cell-based. Particulars: l6, 22 h. For orientation: Tetrazolium assays rely on reduction of a dye to a coloured formazan, in cell work by metabolically active cells.
The test system of series [2] is L6. In words: Induction of glucose uptake in rat L6 cells incubated for 22 hrs in presence of glucose by microplate reader assay. It is filed as functional, cell-based.

In the case of `CCCC(=O)N(C)[C@@H](C)C(=O)N1CCC[C@H]1C(=O)N(C)[C@H](Cc1ccccc1)C(=O)N[C@@H](CC(C)C)C(=O)N(C)[C@@H](C(=O)N[C@H](C(=O)NCC(=O)N(C)[C@@H](Cc1ccccc1)C(=O)N1CCC[C@H]1C(=O)OC)C(C)C)C(C)C`, in the series with Plasmodium falciparum, the IC50 is 2.8 µM.

Consider `CCCC(=O)N(C)[C@@H](C)C(=O)N1CCC[C@H]1C(=O)N(C)[C@@H](Cc1ccccc1)C(=O)N[C@@H](CC(C)C)C(=O)N(C)[C@@H](C(=O)N[C@H](C(=O)NCC(=O)N(C)[C@H](Cc1ccccc1)C(=O)N1CCC[C@H]1C(=O)OC)C(C)C)C(C)C` (stereo in doubt; form 1) [listing 1 of 2 here], for which, in the series with L6 [1], the Activity entry was “Non-Toxic”. The IC50 in the series with Plasmodium falciparum came to 1.4 µM.

As to `CCCC(=O)N(C)[C@@H](C)C(=O)N1CCC[C@H]1C(=O)N(C)[C@@H](Cc1ccccc1)C(=O)N[C@@H](CC(C)C)C(=O)N(C)[C@@H](C(=O)N[C@H](C(=O)NCC(=O)N(C)[C@H](Cc1ccccc1)C(=O)N1CCC[C@H]1C(=O)OC)C(C)C)C(C)C` (stereo in doubt; form 1) [listing 2 of 2 here], the Activity result in the series on L6 [2] is “Dose-dependent effect”.

For the compound `CCCC(=O)N(C)[C@@H](C)C(=O)N1CCC[C@H]1C(=O)N(C)[C@@H](Cc1ccccc1)C(=O)N[C@@H](CC(C)C)C(=O)N(C)[C@@H](C(=O)N[C@H](C(=O)NCC(=O)N(C)[C@H](Cc1ccccc1)C(=O)N1CCC[C@H]1C(=O)OC)C(C)C)C(C)C` (stereo in doubt; form 2), the Activity result in the series on L6 [2] is “Dose-dependent effect”.
